Columns and labels:
[1] = system: 6WI-1 mammary tumor cells; experiment: Mouse ascites mammary tumor assay (6WI-1 isograft); type: in vivo; conditions: for Suppression of accumulation of cells and ascites fluid volume (anticancer activity): 1.0 μg peptide per day for 11 days; for % Inhibition Of Activity: 6WI-1 Acites Volume / % Inhibition Of Activity: 6WI-1 Body Weight / % Inhibition Of Activity: 6WI-1 Cell Prol: 6WI-1 mouse mammary ascites tumor
Description: The growth suppression of the mammary ascites tumor by AFP peptides and its fragments P149a, P149b and P149c, and control peptides were determined in non-estrogen dependent assays which measured tumor cell growth and ascites accumulation of 6WI-1 mammary transplanted NYLAR/nya mice. […] Tumor cell inocula included doses of 0.3, 1.0, and 3.0×10^6 cells which produced host mortality at 12-14 days which was lethal in 100% of the animals. Following peptide dose titration studies, mice inoculated with 6WI-1 mammary cells were injected with a previously-determined optimal dose of 1.0 μg peptide per day or saline for 11 days. On day 12 following inoculation, the total accumulated ascites fluid volume and tumor cells in the peritoneal cavity of each animal were harvested and the cell count determined.
Inoculation of mice with all three cell doses led to an increase in body weight from 25 g (day 0) to approximately […] by day 12, due to the accumulation of tumor cells and ascites fluid in the intraperitoneal cavity. An average cell count in accumulated ascites fluid on day 12 was greater than 10^8 cells/ml with a total ascites volume approximating 20 mls. Tumor cell proliferation in this model has been reported to correlate with the volume of ascites fluid accumulated.
The 6WI-1 mouse mammary tumor studies involving peptide and non-peptide treatment were further compared by histopathological analysis performed on hematoxylin/eosin stained tissue sections.

[2] = system: 6WI-1 mammary tumor cells; experiment: 6WI-1 mammary tumor in 15-day old mouse pups (6 day assay); type: in vivo; parameters: % Inhibition Of Activity: 6WI-1 Pup Ascites: concentration or dose not given beside the values; conditions: mouse pups
Description: As an alternative model of the 6WI-I mammary tumor in adult mice, an inocula of 1×10^6 tumor cells injected into 15-day old mouse pups provided a 6 day rather than a 12 day assay and replicated the same tumor growth suppression by GIP.

MCF-7 cells = experiment: Estrogen-dependent MCF-7 foci formation assay; type: cell-based, human; parameters: % Inhibition Of Activity: MCF-7 foci formation: concentration or dose not given beside the values
Description: Mizejewski et al., “Alpha-fetoprotein derived synthetic peptides: assay of an estrogen-modifying regulatory segment” Mol Cell Endocrinol 118:15-23 (1996). The P149 peptide inhibited the formation of tumor cell foci formed as a result of the accumulation of breast cancer cells which clump together due to loss of contact inhibition.

human platelets = experiment: Platelet aggregation in human platelet-rich plasma; type: cell-based; parameters: % Inhibition Of Activity: Platelet Agg. ADP / % Inhibition Of Activity: Platelet Agg. AA / % Inhibition Of Activity: Platelet Agg. Coll: concentration or dose not given beside the values; conditions: for % Inhibition Of Activity: Platelet Agg. ADP: ADP-induced; for % Inhibition Of Activity: Platelet Agg. AA: arachidonic acid-induced; for % Inhibition Of Activity: Platelet Agg. Coll: collagen-induced; for Inhibition (%) Of Platelet Aggregation, Adenosine Diphosphate (ADP) 2.5 μM / Inhibition (%) Of Platelet Aggregation, Arachidonic Acid (AA) 0.3 mM / Inhibition (%) Of Platelet Aggregation, Collagen (COLL) 2 μg/ml / Inhibition (%) Of Platelet Aggregation, Epinephrine: peptide inhibitors 30 & 100 μM
Description: FIG. 9 presents exemplary data showing platelet aggregation modulation using 0.5 ml of normal human platelet-rich plasma (PRP) with varying amounts of P149 or P 149b using 2.5×10^6 platelets per reaction vessel.
FIG. 10 presents exemplary data showing platelet aggregation activation by arachidonic acid (AA) and collagen using P149-treated platelet suspensions • Panel A1: AA alone; • Panel A2: AA followed by epinephine (EPI) and EPI alone using P149b; • Panel A3: CD62P flow cytometry fluorescence quenching by P149; • Panel B1: collagen alone and collagen+P149; • Panel B2: collagen alone; collagen+P149a showing aggregation diminution.
GIP-derived peptide fragments and/or subfragments have been assayed for platelet aggregation by measuring light transmissions with an aggregometer using a stirred human platelet suspension. Kinlough-Rathbone et al., In: Platelet Aggregation in Measurements of Platelet Function, Eds. Harker L A, Zimmerman T S., Churchill Livingstone, London. pp. 64-87 (1983); and Whittle et al., “Specificity between the anti-aggregatory actions of prostacyclin, prostaglandin Eland D2 on platelets” In: Mechanisms of stimulus—response coupling in platelets, Eds. V. V. K., MacIntyre D E, Scully M F., New York and London: Plenum Press. pp. 109-115 (1985).
The ability of GIP and its fragments were individually examined for aggregation inhibition using citrated human platelet-rich plasma (PRP). The peptides were freshly dissolved in 0.15 M NaCl containing 2.5×10^6 platelets/ml. […]

[3] = system: immature mouse uterine growth; experiment: E2-activated immature mouse uterine growth assay; type: in vivo; parameters: % Inhibition Of Activity: Uterine Growth: concentration or dose not given beside the values; conditions: mouse, in vivo
Description: FIG. 3 presents exemplary data showing the growth suppressive activities of the oligomeric forms of P149, cyclic versus linear, are depicted in various in vitro and in vivo models. Biological activity was determined by three growth-dependent bioassays, namely; • Panel-A and A1) an immature rodent uterine bioassay; • Panel-B and B 1) an in vitro MCF-7 foci assay; • Panel-C and C1) an in vitro tumor cell cytostatic assessment. […] See text for details. Scrambled peptide=P327. […]

Estrogen fetotoxicity = experiment: Estrogen fetotoxicity; parameters: concentration or dose not given beside the values; conditions: in vivo
[4] = system: human kidney tumor cell line
[5] = system: immature mouse uterine growth; experiment: E2-activated immature mouse uterine growth assay; type: in vivo; parameters: concentration or dose not given beside the values
[6] = system: MCF-7 and 6WI-1 tumor cells; experiment: Tumor cell adhesion to ECM proteins in microtiter plates; type: cell-based, human, murine
Description: FIG. 8 presents exemplary data showing the inhibition of P149 in the cellular adhesion of cancer cells to extracellular matrix (ECM) proteins for both human MCF-7 breast cancer cells and for murine 6WI-1 ascites-adapted mammary tumor cells. The cellular adhesion assay was performed in 96-well microtiter plates (Nunc Company, Denmark, catalog #263339) and the wells were pre-coated with 100 microliters of each of the above-mentioned ECM proteins for 24 hours as previously determined. After adding tumor cells, the plates were then incubated at 37° C. for various times; while 6WI-1 cells usually required only 2-4 hours incubation for adhesion; MCF-7 cells required 24 hours for attachment following trypsinization. For both cell lines, the cell culture media contained 5% calf serum to ensure cell attachment. The plates were washed twice with Hank's Saline, fixed in 0.5 mL of 37% formaldehyde, stained with crystal violet and read at […] on a microplate reader. Inset: Using a CyQUANT® stain kit, (Hoechst Corp., Germany) the plates were first exposed to a freeze/thaw cycle at −70° C. for 24 hours and 37° C. for 10 minutes. CyQUANT® buffer solution (150 microliters) was added to each well, and the cell adhesion was measured by fluorescence spectroscopy and quantitated using an ImageQuant® plate scanner (Fluorimager 595, Molecular Dynamics, Sunnyvale, Calif.).
This attachment of GIP was a slightly weaker adhesion matrix than was gelatin, chondroitin sulfate, and poly-lysine which approximated 30-35%. Using P149, the optimal amount of peptide required to inhibit tumor cell adhesion was determined by absorbing soluble peptide (1.0 pg to 100 μg) to the walls of microtiter plates. A constant number of MCF-7 tumor cells (i.e., for example, 1×10^5) were then added to the microtiter well and adhesion quantitated by fluorescence. […] The quantitation of MCF-7 and 6WI-1 cell adhesion in the presence of peptide versus peptide-free media was then determined on ECM-coated microtiter plates using 3 μg GIP/well as a competitive inhibitor. The P149 peptide was added to the wells immediately after the cells were dispensed and then the mixture was incubated as described. The AFP peptide was capable of cell adhesion inhibition in most of the ECM proteins in both tumor cell lines. Inhibition of mouse and human tumor cell adhesion was somewhat equivalent using collagen IV, fibrinogen, fibronectin, and thrombospondin. […] Thus, the GIP was found capable of eliciting different attachment inhibitions dependent on the type of ECM protein coating the wall of the microtiter plate and also the tumor cell type involved.

Row | Sequence | Suppression of accumulation of cells and ascites fluid volume (anticancer activity) [1] | % Inhibition Of Activity: 6WI-1 Acites Volume [1] [%] | % Inhibition Of Activity: 6WI-1 Body Weight [1] [%] | % Inhibition Of Activity: 6WI-1 Cell Prol [1] [%] | % Inhibition Of Activity: 6WI-1 Pup Ascites [2] [%] | % Inhibition Of Activity: MCF-7 foci formation (MCF-7 cells) [%] | % Inhibition Of Activity: Platelet Agg. ADP (human platelets) [%] | % Inhibition Of Activity: Platelet Agg. AA (human platelets) [%] | % Inhibition Of Activity: Platelet Agg. Coll (human platelets) [%] | Inhibition (%) Of Platelet Aggregation, Adenosine Diphosphate (ADP) 2.5 μM (human platelets) | Inhibition (%) Of Platelet Aggregation, Arachidonic Acid (AA) 0.3 mM (human platelets) | Inhibition (%) Of Platelet Aggregation, Collagen (COLL) 2 μg/ml (human platelets) | Inhibition (%) Of Platelet Aggregation, Epinephrine (human platelets) | % Inhibition Of Activity: Uterine Growth [3] [%] | % Inhibition Of Activity: Estrogen Fetotoxicty (Estrogen fetotoxicity) [%] | % Inhibition Of Activity: Kidney tumor growth [4] [%] | % Inhibition Of Activity: Uterine Growth, Enzymatic Fragments [5] [%] | % Inhibition Of Activity: Cell Adhesion [6] [%] | also measured
1 | LSEDKLLACGEG (listed as Homo sapiens) [P149a] | but not P149a or P149b, significantly suppressed | 21 | 22 | 28 | 21 | 33 | 40 | 0 | 0 | 30-40 (biphasic % | No effect | No effect | No effect | 28 | 63 | 25 | 24 | – | –
2 | AADIIIGHLCIRHE (listed as Homo sapiens) [P149b] | but not P149a or P149b, significantly suppressed | 26 | 31 | 34 | 32 | 31 | 95 | 100 | 90 | 95-98% | 100% | 90% | No effect | 22 | 67 | 50 | 19 | 58 | Inhibition of ADP-induced platelet aggregation (FIG. 9) (human platelets; 0.5 ml PRP, 2.5×10^6 platelets per reaction vessel): 70%; Inhibition of ADP-induced platelet aggregation (human platelets; ADP 3 μM, P149 at 100-300 μM PRP): 80-90%; Inhibition of arachidonic acid (AA)-induced platelet aggregation (human platelets; for several minutes until epinephrine was added): complete aggregation inhibition
3 | MTPVNPGV (listed as Homo sapiens) [P149c] | significantly suppressed | 39 | 44 | 45 | 29 | 45 | 0 | 0 | 0 | No effect | No effect | No effect | No effect | 42 | 37 | 19 | 44 | 56 | Inhibition of platelet aggregations induced by ADP and collagen (human platelets): no significant inhibition; Platelet aggregation inhibition (human platelets; inducer not specified): lack inhibitory capabilities
4 | HPEAKRMPCAEDYLSVVLNQLCVLEHKTPVSDRV (listed as Homo sapiens) [P263, reference compound] | – | 10 | 13 | 5 | 0 | 0 | 0 | 0 | 0 | – | – | – | – | 0 | 0 | 0 | 0 | 0 | % Inhibition Of Activity: 6WI-1 Peptide Combos ([1]; peptide combination): 0%
